We go through seven molecules from patent publication US20150141336A1, “Pancreatic Peptide Compounds and Use” (Novo Nordisk A/S, priority 2012, published 2015).

Numbered stars: 1 amine (or outer) side, 2 acyl side, 3 side chain; on linkers, the order of the positions; unused ones are H or OH. Side chains are listed from the residue outwards. Peptide text beside a SMILES is read from it. * marks the point of attachment. C18 diacid = O=C(O)CCCCCCCCCCCCCCCCC(=O)*; γGlu = O=C(O)[C@H](CCC(=O)[*:2])N[*:1]; AEEA = NCCOCCOCC(=O)O

The nature of the data set: Assay (II) PK i.v. minipig, in vivo half-life. Details: species or system Göttingen mini-pigs. To be noted: male, Göttingen, minipig, iv, Half-life minipig, Assay (II). In a few lines: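 Male Göttingen mini-pigs (18–22 kg, n=5) received 6 nmol/kg i.v. via central catheter, formulated in 50 mM K2HPO4, 0.05% tween 80, pH 8.0. EDTA plasma sampled pre-dose to 240 h, quantified by TFC/LC/MS/MS (MRM, range 1-2000 nmol/l); half-life from non-compartmental analysis per animal.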
Regarding `CC[C@H](C)[C@H](NC(=O)[C@H](Cc1ccc(O)cc1)NC(=O)[C@H](CCCNC(=N)N)NC(=O)[C@H](CCCCNC(=O)COCCOCCNC(=O)COCCOCCNC(=O)CC[C@H](NC(=O)CCCCCCCCCCCCCCCCC(=O)O)C(=O)O)NC(=O)[C@H](CC(C)C)NC(=O)[C@H](CC(=O)O)NC(=O)[C@H](C)NC(=O)[C@H](C)NC(=O)[C@H](Cc1ccc(O)cc1)NC(=O)[C@H](CCC(N)=O)NC(=O)[C@H](C)NC(=O)[C@H](CCSC)NC(=O)[C@H](CCC(N)=O)NC(=O)[C@H](CCC(=O)O)NC(=O)[C@@H]1CCCN1C(=O)[C@@H](NC(=O)[C@H](C)NC(=O)[C@H](CC(N)=O)NC(=O)[C@H](CC(=O)O)NC(=O)CNC(=O)[C@@H]1CCCN1C(=O)[C@H](Cc1ccc(O)cc1)NC(=O)[C@@H](NC(=O)[C@@H]1CCCN1C(=O)[C@H](CCC(=O)O)NC(=O)[C@H](CC(C)C)NC(=O)[C@@H]1CCCN1)C(C)C)[C@@H](C)O)C(=O)N[C@@H](CC(N)=O)C(=O)N[C@@H](CCSC)C(=O)N[C@@H](CC(C)C)C(=O)N[C@H](C(=O)N[C@@H](CCCNC(=N)N)C(=O)N1CCC[C@H]1C(=O)N[C@@H](CCCNC(=N)N)C(=O)N[C@@H](Cc1ccc(O)cc1)C(N)=O)[C@@H](C)O` [Compound I] (H-PLEPVYPGDNATPEQMAQYAADLK([AEEA-AEEA-γGlu-C18 diacid])RYINMLTRPRY-NH2; N-terminus and C-terminus assumed), the half-life was 88 h.
In the case of `CC[C@H](C)[C@H](NC(=O)[C@H](Cc1ccc(O)cc1)NC(=O)[C@H](CCCNC(=N)N)NC(=O)[C@H](CCCNC(=N)N)NC(=O)[C@H](CC(C)C)NC(=O)[C@H](CC(=O)O)NC(=O)[C@H](C)NC(=O)[C@H](C)NC(=O)[C@H](Cc1ccc(O)cc1)NC(=O)[C@H](CCC(N)=O)NC(=O)[C@H](C)NC(=O)[C@H](CCSC)NC(=O)[C@H](CCC(N)=O)NC(=O)[C@H](CCC(=O)O)NC(=O)[C@@H]1CCCN1C(=O)[C@@H](NC(=O)[C@H](C)NC(=O)[C@H](CC(N)=O)NC(=O)[C@H](CC(=O)O)NC(=O)CNC(=O)[C@@H]1CCCN1C(=O)[C@H](Cc1ccc(O)cc1)NC(=O)[C@@H](NC(=O)[C@H](CCCCNC(=O)COCCOCCNC(=O)COCCOCCNC(=O)CC[C@H](NC(=O)CCCCCCCCCCCCCCCCC(=O)O)C(=O)O)NC(=O)[C@H](CCC(=O)O)NC(=O)[C@@H](N)CC(C)C)C(C)C)[C@@H](C)O)C(=O)N[C@@H](CC(N)=O)C(=O)N[C@@H](CCSC)C(=O)N[C@@H](CC(C)C)C(=O)N[C@H](C(=O)N[C@@H](CCCNC(=N)N)C(=O)N1CCC[C@H]1C(=O)N[C@@H](CCCNC(=N)N)C(=O)N[C@@H](Cc1ccc(O)cc1)C(N)=O)[C@@H](C)O` [Compound BK], the half-life is 54 h.
Under `CC[C@H](C)[C@H](NC(=O)[C@H](Cc1ccc(O)cc1)NC(=O)[C@H](CCCNC(=N)N)NC(=O)[C@H](CCCNC(=N)N)NC(=O)[C@H](CC(C)C)NC(=O)[C@H](CC(=O)O)NC(=O)[C@H](C)NC(=O)[C@H](C)NC(=O)[C@H](Cc1ccc(O)cc1)NC(=O)[C@H](CCC(N)=O)NC(=O)[C@H](C)NC(=O)[C@H](CCSC)NC(=O)[C@H](CCC(N)=O)NC(=O)[C@H](CCC(=O)O)NC(=O)[C@H](CCCCNC(=O)COCCOCCNC(=O)COCCOCCNC(=O)CC[C@H](NC(=O)CCCCCCCCCCCCCCCCC(=O)O)C(=O)O)NC(=O)[C@@H](NC(=O)[C@H](C)NC(=O)[C@H](CC(N)=O)NC(=O)[C@H](CC(=O)O)NC(=O)CNC(=O)[C@@H]1CCCN1C(=O)[C@H](Cc1ccc(O)cc1)NC(=O)[C@@H](NC(=O)[C@@H]1CCCN1C(=O)[C@H](CCC(=O)O)NC(=O)[C@H](CC(C)C)NC(=O)[C@@H]1CCCN1)C(C)C)[C@@H](C)O)C(=O)N[C@@H](CC(N)=O)C(=O)N[C@@H](CCSC)C(=O)N[C@@H](CC(C)C)C(=O)N[C@H](C(=O)N[C@@H](CCCNC(=N)N)C(=O)N1CCC[C@H]1C(=O)N[C@@H](CCCNC(=N)N)C(=O)N[C@@H](Cc1ccc(O)cc1)C(N)=O)[C@@H](C)O` [Compound T] (H-PLEPVYPGDNATK([AEEA-AEEA-γGlu-C18 diacid])EQMAQYAADLRRYINMLTRPRY-NH2; N-terminus and C-terminus assumed) stands 45 h; under `CC[C@H](C)[C@H](NC(=O)[C@H](Cc1ccc(O)cc1)NC(=O)[C@H](CCCNC(=N)N)NC(=O)[C@H](CCCNC(=N)N)NC(=O)[C@H](CC(C)C)NC(=O)[C@H](CC(=O)O)NC(=O)[C@H](C)NC(=O)[C@H](C)NC(=O)[C@H](Cc1ccc(O)cc1)NC(=O)[C@H](CCC(N)=O)NC(=O)[C@H](C)NC(=O)[C@H](CCSC)NC(=O)[C@H](CCC(N)=O)NC(=O)[C@H](CCC(=O)O)NC(=O)[C@@H]1CCCN1C(=O)[C@@H](NC(=O)[C@H](C)NC(=O)[C@H](CC(N)=O)NC(=O)[C@H](CC(=O)O)NC(=O)CNC(=O)[C@@H]1CCCN1C(=O)[C@H](Cc1ccc(O)cc1)NC(=O)[C@@H](NC(=O)[C@@H]1CCCN1C(=O)[C@H](CCC(=O)O)NC(=O)[C@H](CC(C)C)NC(=O)[C@@H]1CCCN1)C(C)C)[C@@H](C)O)C(=O)N[C@@H](CC(N)=O)C(=O)N[C@@H](CCSC)C(=O)N[C@@H](CC(C)C)C(=O)N[C@@H](CCCCNC(=O)COCCOCCNC(=O)COCCOCCNC(=O)CC[C@H](NC(=O)CCCCCCCCCCCCCCCCC(=O)O)C(=O)O)C(=O)N[C@@H](CCCNC(=N)N)C(=O)N1CCC[C@H]1C(=O)N[C@@H](CCCNC(=N)N)C(=O)N[C@@H](Cc1ccc(O)cc1)C(N)=O` [Compound B] (H-PLEPVYPGDNATPEQMAQYAADLRRYINMLK([AEEA-AEEA-γGlu-C18 diacid])RPRY-NH2; N-terminus and C-terminus assumed), 93 h.
As for `CC[C@H](C)[C@H](NC(=O)[C@H](Cc1ccc(O)cc1)NC(=O)[C@H](CCCNC(=N)N)NC(=O)[C@H](CCCNC(=N)N)NC(=O)[C@H](CC(C)C)NC(=O)[C@H](CC(=O)O)NC(=O)[C@H](C)NC(=O)[C@H](C)NC(=O)[C@H](Cc1ccc(O)cc1)NC(=O)[C@H](CCC(N)=O)NC(=O)[C@H](C)NC(=O)[C@H](CCSC)NC(=O)[C@H](CCC(N)=O)NC(=O)[C@H](CCC(=O)O)NC(=O)[C@@H]1CCCN1C(=O)[C@@H](NC(=O)[C@H](CCCCNC(=O)COCCOCCNC(=O)COCCOCCNC(=O)CC[C@H](NC(=O)CCCCCCCCCCCCCCCCC(=O)O)C(=O)O)NC(=O)[C@H](CC(N)=O)NC(=O)[C@H](CC(=O)O)NC(=O)CNC(=O)[C@@H]1CCCN1C(=O)[C@H](Cc1ccc(O)cc1)NC(=O)[C@@H](NC(=O)[C@@H]1CCCN1C(=O)[C@H](CCC(=O)O)NC(=O)[C@H](CC(C)C)NC(=O)[C@@H]1CCCN1)C(C)C)[C@@H](C)O)C(=O)N[C@@H](CC(N)=O)C(=O)N[C@@H](CCSC)C(=O)N[C@@H](CC(C)C)C(=O)N[C@H](C(=O)N[C@@H](CCCNC(=N)N)C(=O)N1CCC[C@H]1C(=O)N[C@@H](CCCNC(=N)N)C(=O)N[C@@H](Cc1ccc(O)cc1)C(N)=O)[C@@H](C)O` [Compound V], the half-life is 36 h.
For the molecule `CC[C@H](C)[C@H](NC(=O)[C@H](CCCCNC(=O)COCCOCCNC(=O)COCCOCCNC(=O)CC[C@H](NC(=O)CCCCCCCCCCCCCCCCC(=O)O)C(=O)O)NC(=O)[C@H](CCCNC(=N)N)NC(=O)[C@H](CCCNC(=N)N)NC(=O)[C@H](CC(C)C)NC(=O)[C@H](CC(=O)O)NC(=O)[C@H](C)NC(=O)[C@H](C)NC(=O)[C@H](Cc1ccc(O)cc1)NC(=O)[C@H](CCC(N)=O)NC(=O)[C@H](C)NC(=O)[C@H](CCSC)NC(=O)[C@H](CCC(N)=O)NC(=O)[C@H](CCC(=O)O)NC(=O)[C@@H]1CCCN1C(=O)[C@@H](NC(=O)[C@H](C)NC(=O)[C@H](CC(N)=O)NC(=O)[C@H](CC(=O)O)NC(=O)CNC(=O)[C@@H]1CCCN1C(=O)[C@H](Cc1ccc(O)cc1)NC(=O)[C@@H](NC(=O)[C@@H]1CCCN1C(=O)[C@H](CCC(=O)O)NC(=O)[C@@H](N)CC(C)C)C(C)C)[C@@H](C)O)C(=O)N[C@@H](CC(N)=O)C(=O)N[C@@H](CCSC)C(=O)N[C@@H](CC(C)C)C(=O)N[C@H](C(=O)N[C@@H](CCCNC(=N)N)C(=O)N1CCC[C@H]1C(=O)N[C@@H](CCCNC(=N)N)C(=O)N[C@@H](Cc1ccc(O)cc1)C(N)=O)[C@@H](C)O` [Compound AO] (H-LEPVYPGDNATPEQMAQYAADLRRK([AEEA-AEEA-γGlu-C18 diacid])INMLTRPRY-NH2; N-terminus and C-terminus assumed), the half-life is 44 h.
For `CC[C@H](C)[C@H](NC(=O)[C@H](Cc1ccc(O)cc1)NC(=O)[C@H](CCCNC(=N)N)NC(=O)[C@H](CCCNC(=N)N)NC(=O)[C@H](CC(C)C)NC(=O)[C@H](CC(=O)O)NC(=O)[C@H](C)NC(=O)[C@H](C)NC(=O)[C@H](Cc1ccc(O)cc1)NC(=O)[C@H](CCC(N)=O)NC(=O)[C@H](C)NC(=O)[C@H](CCSC)NC(=O)[C@H](CCC(N)=O)NC(=O)[C@H](CCC(=O)O)NC(=O)[C@@H]1CCCN1C(=O)[C@H](CCCCNC(=O)COCCOCCNC(=O)COCCOCCNC(=O)CC[C@H](NC(=O)CCCCCCCCCCCCCCCCC(=O)O)C(=O)O)NC(=O)[C@H](C)NC(=O)[C@H](CC(N)=O)NC(=O)[C@H](CC(=O)O)NC(=O)CNC(=O)[C@@H]1CCCN1C(=O)[C@H](Cc1ccc(O)cc1)NC(=O)[C@@H](NC(=O)[C@@H]1CCCN1C(=O)[C@H](CCC(=O)O)NC(=O)[C@H](CC(C)C)NC(=O)[C@@H]1CCCN1)C(C)C)C(=O)N[C@@H](CC(N)=O)C(=O)N[C@@H](CCSC)C(=O)N[C@@H](CC(C)C)C(=O)N[C@H](C(=O)N[C@@H](CCCNC(=N)N)C(=O)N1CCC[C@H]1C(=O)N[C@@H](CCCNC(=N)N)C(=O)N[C@@H](Cc1ccc(O)cc1)C(N)=O)[C@@H](C)O` [Compound U] (H-PLEPVYPGDNAK([AEEA-AEEA-γGlu-C18 diacid])PEQMAQYAADLRRYINMLTRPRY-NH2; N-terminus and C-terminus assumed), the half-life is 23 h.
